Patent US11504425B2, “Amphiphilic oligodeoxynucleotide conjugates as adjuvant enhancers” (WAYNE STATE UNIVERSITY, priority 2019, dated 2022)

What was measured:
mouse TLR7 (mTLR7) = molecular target: T1, mouse TLR7 (mTLR7) (Mus musculus, UniProt P58681); assay: HEK mTLR7 reporter cells NF-κB/SEAP; assay type: cell-based; settings: ligands at indicated concentrations + 1 μM ODN, 24 h
T1 construct: host or cells: HEK-Blue-mTLR7 (HEK293)
T1 sequence (P58681 27-1050): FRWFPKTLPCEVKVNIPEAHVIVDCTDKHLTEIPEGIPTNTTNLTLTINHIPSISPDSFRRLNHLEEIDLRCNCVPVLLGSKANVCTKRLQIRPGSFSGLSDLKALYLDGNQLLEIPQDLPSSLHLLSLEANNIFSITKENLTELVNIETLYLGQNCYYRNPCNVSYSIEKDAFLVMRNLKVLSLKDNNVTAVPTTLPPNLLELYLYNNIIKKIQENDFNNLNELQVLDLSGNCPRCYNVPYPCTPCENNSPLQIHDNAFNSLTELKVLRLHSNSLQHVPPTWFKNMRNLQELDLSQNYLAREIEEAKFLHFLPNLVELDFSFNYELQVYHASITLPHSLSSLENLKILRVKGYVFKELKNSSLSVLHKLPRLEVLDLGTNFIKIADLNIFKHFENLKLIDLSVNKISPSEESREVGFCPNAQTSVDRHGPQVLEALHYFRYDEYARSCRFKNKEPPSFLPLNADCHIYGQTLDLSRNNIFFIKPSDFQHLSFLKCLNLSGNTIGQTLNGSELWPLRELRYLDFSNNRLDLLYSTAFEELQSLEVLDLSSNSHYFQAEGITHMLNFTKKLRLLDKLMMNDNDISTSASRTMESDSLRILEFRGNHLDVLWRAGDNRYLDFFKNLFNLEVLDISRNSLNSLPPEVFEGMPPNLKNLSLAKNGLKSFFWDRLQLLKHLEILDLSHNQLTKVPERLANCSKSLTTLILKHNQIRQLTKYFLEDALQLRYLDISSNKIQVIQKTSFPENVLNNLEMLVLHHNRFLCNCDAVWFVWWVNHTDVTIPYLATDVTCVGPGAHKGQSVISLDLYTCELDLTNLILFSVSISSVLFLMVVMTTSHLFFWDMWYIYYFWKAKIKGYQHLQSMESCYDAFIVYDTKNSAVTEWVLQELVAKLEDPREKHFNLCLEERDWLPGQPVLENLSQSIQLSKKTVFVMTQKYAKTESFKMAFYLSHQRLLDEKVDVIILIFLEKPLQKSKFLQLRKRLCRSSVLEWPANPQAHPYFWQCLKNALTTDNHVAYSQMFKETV
Method: (§1) HEK-Blue™-mTLR7, mTLR8, hTLR7, hTLR8, and RAW-Blue™ cells were purchased from InvivoGen and were used to evaluate bioactivities of lipo ODNs and TLR 7/8 ligands in vitro. All these cell lines were cultured with DMEM supplemented with 10% FBS, 1% P/S and 100 μg/mL Normocin at 37° C. with 5% CO2. […] After incubating for 24 h, SEAP levels were quantified by developing supernatants with QuantiBlue™ substrate for 1 h and reading absorption at 620 nm, following manufacturer's instructions.
Raw Blue cells which respond to both murine TLR-7 and TLR-8 are also included to assess the overall modulatory effect. half-maximal effective concentration (EC50) and potency of several classic TLR7/8 ligands were evaluated in murine TLR7 and TLR8 reporter cells.

human TLR7 (hTLR7) = molecular target: T2, human TLR7 (hTLR7) (Homo sapiens, UniProt Q9NYK1); assay: HEK hTLR7 reporter cells NF-κB/SEAP; assay type: cell-based; settings: IMQ at indicated concentrations + 1 μM ODN, 24 h
T2 construct: host or cells: HEK-Blue-hTLR7 (HEK293)
T2 sequence (Q9NYK1 27-1049): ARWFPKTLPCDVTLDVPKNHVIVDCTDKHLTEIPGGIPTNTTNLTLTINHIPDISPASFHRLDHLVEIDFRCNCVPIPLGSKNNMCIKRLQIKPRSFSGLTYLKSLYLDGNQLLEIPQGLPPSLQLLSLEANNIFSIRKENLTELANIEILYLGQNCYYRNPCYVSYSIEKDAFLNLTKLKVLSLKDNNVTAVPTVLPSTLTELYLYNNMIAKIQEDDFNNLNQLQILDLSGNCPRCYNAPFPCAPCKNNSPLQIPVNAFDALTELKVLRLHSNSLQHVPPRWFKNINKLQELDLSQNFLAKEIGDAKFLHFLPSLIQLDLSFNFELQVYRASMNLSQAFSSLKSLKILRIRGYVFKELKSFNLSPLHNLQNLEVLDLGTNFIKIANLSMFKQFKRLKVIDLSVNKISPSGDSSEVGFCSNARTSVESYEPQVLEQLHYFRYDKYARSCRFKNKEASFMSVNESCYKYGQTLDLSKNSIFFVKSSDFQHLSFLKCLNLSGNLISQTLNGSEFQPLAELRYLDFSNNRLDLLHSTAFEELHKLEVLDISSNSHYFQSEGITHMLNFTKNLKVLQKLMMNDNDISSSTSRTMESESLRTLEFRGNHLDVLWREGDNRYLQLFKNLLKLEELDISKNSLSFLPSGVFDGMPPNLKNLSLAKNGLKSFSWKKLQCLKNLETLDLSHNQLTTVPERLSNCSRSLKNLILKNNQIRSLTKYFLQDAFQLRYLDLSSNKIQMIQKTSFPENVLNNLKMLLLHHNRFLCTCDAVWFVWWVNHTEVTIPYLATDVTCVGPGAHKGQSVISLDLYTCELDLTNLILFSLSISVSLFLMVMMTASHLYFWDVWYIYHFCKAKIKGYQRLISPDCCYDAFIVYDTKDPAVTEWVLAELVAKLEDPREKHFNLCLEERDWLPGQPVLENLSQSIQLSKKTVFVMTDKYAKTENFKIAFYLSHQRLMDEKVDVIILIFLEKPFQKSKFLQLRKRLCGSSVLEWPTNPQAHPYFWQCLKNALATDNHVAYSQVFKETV
Method: as §1
HEK293 cells transfected with human TLR7 or 8 were used. The cells were stimulated with IMQ in the presence of several inhibitory oligonucleotides reported in the literature. […] In contrast, all the unmodified ODNs maintained their inhibitory function, reducing the NF-κB secretion to basal levels (FIG. 8A). We then plotted the IMQ dose response curve in human TLR-7 transfected HEK293 cells.

5′-TTTTTTTTTTTTTTTTTTTT-3′ [T20]
mTLR7 activation by IMQ, CL075, R848 in the presence of the ODN (mouse TLR7 (mTLR7)): suppressed the TLR-7 activation
IMQ dose response in hTLR7 cells in the presence of the ODN (human TLR7 (hTLR7)): completely abrogated the immune activation by IMQ
